This note sets out measurements from patent publication US9216166B2, “Anti-microbial photodynamic therapy” (Biolitec Pharma Marketing, Ltd, priority 2006, dated 2015).

Holding throughout (assay type): cell-based
Assay [1] has as its system Pseudomonas aeruginosa DSM1117. The experiment in a line: Photodynamic inactivation of Pseudomonas aeruginosa with Safranin O (FIG. 1B). The text has this: (§1) One of the major problems for the use of anti-microbial PDT is a blocking action of the components of the blood whose presence decreases the activity of photosensitizers.
(§2) The antibacterial effect strongly depends on the kind of bacterial cells.
(§3) FIG. 1, Graph showing photodynamic inactivation of Staphylococcus aureus DSM1104 (FIG. 1A), Pseudomonas aeruginosa DSM1 117 (FIG. 1B), and Escherichia coli DSM8698 (FIG. 1C) by treatment with Safranin O as a photo sensitizer.

The subject of assay [2] is Staphylococcus aureus, Pseudomonas aeruginosa and Escherichia coli. The experiment in a line: Photodynamic inactivation of bacteria with Safranin O (FIG. 1).
From the text: as §1, §2, §3

In the next assay the test system is Escherichia coli DSM8698. The experiment in a line: Photodynamic inactivation of Escherichia coli with Safranin O (FIG. 1C). The conditions noted are these: compared with Staphylococcus aureus.
From the text: as §1, §2, §3

In assay [3] the test system is Staphylococcus aureus DSM1104. Kind of assay: Photodynamic inactivation of Staphylococcus aureus with Safranin O (FIG. 1A).
From the text: as §1, §2, §3

For assay [4], the system named is Gram-positive and Gram-negative bacteria. The experiment in a line: Photodynamic inactivation of bacterial cell suspension using photosensitizers 1, 3a-e (CFU/ml after 665 nm laser irradiation). The conditions noted are these: in the presence of blood (PBS with 10% human blood), 30 min incubation, about 100 J/cm^2, FIG. 2. The procedure:
In the preferred embodiment, the antibacterial treatment includes the administration of photosensitizers to an environment containing bacteria and is allowed to incubate for a sufficient period of time thus providing accumulation of the photosensitizer into the bacterial cells. The incubation time varies depending on many factors. In this experiment it is incubated for 30 min before being irradiated with 665 nm laser at 100 J/cm^2 to initiate photodestruction of bacterial cells. The photosensitizer can be administered either by systemic application, or local injection in the affected area. For infection on or near the skin it can be administered topically.
The organisms used in our studies were three members of the microflora of wounds: Staphylococcus aureus DSM1104, Gram-positive; Escherichia coli DSM8698, Gram-negative; Pseudomonas aeruginosa DSM1117, Gram-negative.
Cultured cells are suspended in sterile phosphate-buffered saline (PBS) or sterile PBS supplemented with 10% sterile horse blood serum, 10% human plasma or 10% human blood respectively. The final OD (Optical Density) at 600 nm, 1 cm in all cases was 0.03. The bacterial suspensions are placed into sterile black well plates with clear bottoms. […]

Regarding `Cc1cc2nc3cc(C)c(N)cc3[n+](-c3ccccc3)c2cc1N.[Cl-]` [Safranin O], the “effect of added serum, plasma or blood on photodynamic activity against Pseudomonas aeruginosa” value in assay [1] (addition of 10% of horse serum or human plasma or whole blood) is “practically block the photodynamic activity”. Further, the “susceptibility of Gram-negative cells of Pseudomonas aeruginosa to killing by PDT” value in assay [1] (compared with Staphylococcus aureus, FIG. 1) is on record as “more resistant to killing by PDT”. Moreover, in assay [2] (in PBS buffer), the bactericidal photodynamic activity entry is recorded as “high bactericidal photodynamic activity”. Besides, in assay [2] (when blood serum or blood is added), the “change of bactericidal photodynamic activity” value was “decreased remarkably”. The “susceptibility of Gram-negative cells of Escherichia coli to killing by PDT” value in the assay with Escherichia coli DSM8698 is listed as “more resistant to killing by PDT”. In addition, the “killing of Gram-positive cells of Staphylococcus aureus by PDT” value in assay [3] is on record as “could be killed sufficiently”.
For the compound `CCC1=C(C)c2cc3[nH]c(cc4nc(c5c6[nH]c(cc1n2)c(C)c6C(=O)C5)[C@@H](CCC(=O)O)C4C)c(C)c3CC` (stereo partly drawn) [compound 1, meso pyropheophorbide-a], in assay [4], the “photodynamic activity against Gram-positive and Gram-negative bacteria” value is given as “not active”.
